Measured values from patent US10092644B2, “Use of fluorinated cyclic dinucleotides as oral vaccine adjuvants” (BROCK UNIVERSITY, priority 2013, dated 2018).

How the values were obtained:
[1] = system: recombinant PsaA protein of S. pneumoniae; assay: Intranasal immunization of mice with PsaA admixed with adjuvant; ELISA for PsaA-specific IgA and IgG isotypes; type: in vivo, BALB/c mice
Source text: Mice. Six to eight-week-old female BALB/c or C57BL/6 mice were purchased from Charles Rivers Laboratories (St. Constant, Quebec). The animals were housed under specific-pathogen-free conditions in a federally licensed small animal containment level 2 facility, and given free access to sterile water and certified mouse chow. The animals were maintained and used in accordance with the recommendations of the Canadian Council on Animal Care Guide to the Care and Use of Experimental Animals, and the experimental procedures were approved by the institutional animal care committee.
(§1) Intranasal or oral immunization in mice. For intranasal immunization, mice were lightly anesthetized under isofluorane. On day 0, 14 and 21, groups of mice (n=5) were inoculated with 50 μl of various vaccine preparations or controls as detailed in Examples 1-5. For oral immunization, various vaccine preparations or controls in 0.2 ml volume were administered by gavage via an 18-gauge feeding needle.
At day 28, blood and mucosal samples (fecal pellets or/and vaginal wash) were collected as described elsewhere (Patel G B, Zhou H, Ponce A, Chen W (2007). Mucosal and systemic immune responses by intranasal immunization using archaeal lipid-adjuvanted vaccines. Vaccine 25: 8622-8636.). In some experiments, nasal wash samples were also collected at the end of experiment. For both the vaginal and nasal wash, the volume of the lavage fluid recovered from each mouse was recorded. Since the recovery of lavage volumes among different mice in our study were very similar (about 90%), the small variation among individual samples was not adjusted. All samples were stored at −20° C. until assay.
Vaginal wash samples were collected by slowly injecting and withdrawing (3-4 times) 50 μl PBS (pH 7.2) into the vagina of conscious mice, using a P100 pipette. The volume of the vaginal lavage fluid recovered from each mouse was recorded.
Enzyme-linked immunosorbent assay (ELISA) for PsaA-specific IgA and IgG isotypes. Levels of PsaA-specific antibodies in serum and mucosal samples were measured by an enzyme-linked immunosorbent assay (ELISA) modified from a previously described procedure (Yan H, Kuo Lee R, Tram K, Qiu H, Zhang J, Patel G B, Chen W. 3′,5′-Cyclic diguanylic acid elicits mucosal immunity against bacterial infection. Biochemical and Biophysical Research Communications, 2009; 387(3):581-4.). Briefly, 96-well Immunolon 2^R microplates (Thermo Electron Corporation, Milford, Mass.) were coated with 0.5 μg PsaA/well in 100 μl of 0.015 M sodium carbonate and 0.035 M sodium bicarbonate buffer (pH 9.6) at 4° C. overnight. All the subsequent incubations were carried out at room temperature. The wells were blocked by incubation with 5% bovine serum in PBS for 1 h, and then rinsed three times with PBS-0.05% Tween 20. Duplicates of 100 μl pre-diluted samples were added to the wells. Sample dilutions were as follows: 1:2 for fecal extracts and nasal washes, 1:2000 for serum IgG1, 1:500 for serum IgG2a and 1:50 for serum IgA. After the plates were incubated for 3 h, alkaline phosphatase-conjugated goat antibodies specific for mouse IgA, IgG1 and IgG2a (all from Caltag Laboratories, Burlingame, Calif.) were added and incubated for 1 h. Color reactions were developed by the addition of p-nitrophenyl phosphate (pNPP) substrate (KPL, Inc., Gaithersburg, Md.), and optical density was measured at 405 nm with an automated ELISA plate reader (Multiskan Ascent, Thermo Labsystems, Vantaa, Finland). Pooled samples collected from mice that had been intranasally immunized with the PsaA+CT or from the naïve mice were used as positive or negative controls respectively.
To determine if 2′-F-c-di-GMP can elicit mucosal immune responses to microbial (bacterial and viral) antigens, groups of BALB/c mice were intranasally (i.n.) immunized with 2 μg recombinant PsaA protein of S. pneumoniae admixed with 2.5 μg 2′-F-c-di-GMP, 2.5 μg c-di-GMP, or 10 μg c-di-GMP at day 0, 14 and 21. […]

S. pneumoniae = assay: Mouse S. pneumoniae nasopharyngeal colonization model after intranasal immunization; type: in vivo, mice
Protocol: as §1
Intranasal challenge of mice with S. pneumoniae. Fresh inocula were prepared for each experiment from a frozen stock of S. pneumoniae (type 14). […] The actual inoculum concentrations were determined by plating 10-fold serial dilutions on chocolate agar. Inoculated mice were sacrificed 3 days later and the nasal cavity was lavaged with 0.5 ml lavage fluid and aliquots (100 μl) of 10-fold serial dilutions of the lavage fluids were cultured, in duplicates, on chocolate agar plates to quantify the number of viable organisms.
Next, it was determined if the mucosal immune responses induced by the 2′-F-c-di-GMP adjuvanted vaccine are protective against mucosal infections in the well-established mouse S. pneumoniae colonization model. […] Mice were sacrificed 3 days after challenge, and the nasopharyngeal tract was lavaged and bacterial numbers in the nasal wash were determined.

[2] = system: H. pylori cell-free sonicate extract (HPCE); set-up: species or system C57BL/6 mice; settings: mouse, in vivo, po
[3] = system: splenocytes stimulated by HPCE; settings: mouse, in vivo, po
H. pylori SS1 = assay: Mouse model of H. pylori gastric colonization after oral immunization; type: in vivo, mice
Listeria flagellin = assay: Oral immunization with Listeria flagellin admixed with adjuvant; ELISA for flagellin-specific antibodies; type: in vivo, BALB/c mice; settings: day 35
C. difficile flagellin = assay: Oral immunization with C. difficile flagellin admixed with adjuvant; ELISA for flagellin-specific antibodies; type: in vivo, BALB/c mice; settings: day 35
[4] = system: pneumococcal surface adhesion A (Psa); settings: mice, intranasally, Psa together with c-di-GMP (Yan et al. 2009); cited from earlier work
[5] = i.n. 2 μg PsaA admixed with 2.5 μg adjuvant at day 0, 14 and 21, samples day 28, FIG. 1
[6] = i.n. with 2 μg PsaA, comparator 2.5 μg or 10 μg c-di-GMP
[7] = oral 50 μg Listeria flagellin + 75 μg adjuvant
[8] = oral 30 μg C. difficile flagellin + 75 μg adjuvant

2′-F-c-di-GMP
stronger: IgG2a response in the serum compared to parental c-di-GMP [1, 6] | antigen-specific IgA response in feces compared to parental c-di-GMP [1, 6] | antigen-specific IgA response in vaginal washings compared to parental c-di-GMP [1, 6]
high level: PsaA-specific IgA in feces [1, 5] | PsaA-specific IgA in nasal wash [1, 5] | PsaA-specific IgA in serum [1, 5] | PsaA-specific serum IgG1 level [1, 5] | PsaA-specific serum IgG2a level [1, 5]
substantial amount: antigen-specific IgA level in feces [2] | antigen-specific IgA level in serum [2] | antigen-specific serum IgG1 level [2] | antigen-specific serum IgG2a level [2] | C. difficile flagellin-specific IgA in feces (C. difficile flagellin; oral 30 μg C. difficile flagellin admixed with 75 μg adjuvant day 0, 14, 21, FIG. 6)
even higher: IFN-γ produced by splenocytes compared to cells from CT-immunized mice [3]
substantially higher: IgG2a response in the serum compared with sham-immunized mice [2] | antigen-specific IgA response in feces compared with sham-immunized mice [2] | IFN-γ produced by splenocytes compared to sham-immunized mice [3] | IL-2 produced by splenocytes compared to sham-immunized mice [3] | IL-17 produced by splenocytes compared to sham-immunized mice [3] | IgG1 response in the serum compared with sham-immunized mice (Listeria flagellin; [7]) | IgG2a response in the serum compared with sham-immunized mice (Listeria flagellin; [7]) | antigen-specific IgA response in feces compared with sham-immunized mice (Listeria flagellin; [7]) | IgG1 response in the serum compared with sham-immunized mice (C. difficile flagellin; [8]) | IgG2a response in the serum compared with sham-immunized mice (C. difficile flagellin; [8]) | antigen-specific IgA response in feces compared with sham-immunized mice (C. difficile flagellin; [8])
significantly reduced colonization: nasopharyngeal colonization of S. pneumoniae compared to sham-immunized mice (S. pneumoniae; i.n. immunization, i.n. challenge 4.55×10^6 CFU at day 35, nasal wash bacterial numbers 3 days after challenge, P<0.05 for adjuvanted group, FIG. 2) | gastric colonization of H. pylori compared to sham-immunized mice (H. pylori SS1; oral immunization, oral challenge 10^8 CFU H. pylori SS1 three times from day 35, stomach 6 weeks after first challenge, P<0.05 for adjuvanted group, FIG. 5)
significantly reduced bacterial burdens: bacterial burdens in the gastric mucosa compared to sham (PBS)-immunized mice (H. pylori SS1; both low or high doses of HPCE + 2′-F-c-di-GMP, oral)
comparable: magnitude of reduction of S. pneumoniae colonization relative to PsaA+CT immunized mice (S. pneumoniae; PsaA+2′-F-c-di-GMP i.n., PsaA+CT data from Yan et al. 2009) | magnitude of reduction of H. pylori colonization relative to HPCE adjuvanted with CT (H. pylori SS1; HPCE+2′-F-c-di-GMP vs HPCE+CT, oral)
small amount: Listeria flagellin-specific IgA in feces (Listeria flagellin; oral 50 μg Listeria flagellin admixed with 75 μg adjuvant day 0, 14, 21, FIG. 6)

Nc1nc2c(ncn2C2OC3COP(=O)(O)OC4C(COP(=O)(O)OC3C2O)OC(n2cnc3c(=O)[nH]c(N)nc32)C4O)c(=O)[nH]1 (centres unmarked) [c-di-GMP, 3′,5′-cyclic diguanylic acid]
enhanced: antigen specific antibody response [4]
